In article PMC12036875, “Mitochondria-targeting natural product rhein conjugated with dichloroacetate as the dual inhibitor of glycolysis and oxidative phosphorylation to off energize cancer cells and induce ROS storm” (Theranostics, 2025):

Experiment: Stability in 2.5% DMSO-PBS by UV-Vis absorption
Format: physicochemical
Settings: room temperature, 0-12 h
Description: Stability of drugs is vital indexes for anticancer application. The stability of Rhein-DCA conjugate in vitro was performed by dispersing it in 2.5% dimethyl sulfoxide (DMSO)-PBS at room temperature for 0, 2, 6 and 12 h. […] Furthermore, we also quantitatively analyzed the intracellular stability of Rhein-DCA using high-performance liquid chromatography (HPLC). After 4 h of uptake, the intracellular concentration of Rhein-DCA was 0.095 μg/10^6 cells within 4T1 cells.
UV-Vis spectra were used to investigate the stability of Rhein-DCA conjugate. The Rhein-DCA was dispersed in 2.5% DMSO-PBS at room temperature, and the absorption spectrum was monitored at 0, 2, 6 and 12 h. High performance liquid chromatography (HPLC) was used to investigate the intracellular stability of Rhein-DCA conjugate. 4T1 cells were seeded in cell culture dish (diameter of 10 cm) at a density of 2 × 10^6 cells per dish and cultured in the incubator for 24 h. Then the cells were further treated with Rhein-DCA conjugate at a concentration of 11 μg/mL for 4 h. After removing media and washing the cells three times with PBS to remove the residual Rhein-DCA, the cells were incubated for another 2 h. […] A C18 column was used with methanol / 0.1% H₃PO₄ (83:17) as the mobile phase, flow rate 1.0 mL/min, fluorescence detector with an excitation wavelength of 443 nm and an emission wavelength of 530 nm.

For `O=C(OCCOC(=O)C(Cl)Cl)c1cc(O)c2c(c1)C(=O)c1cccc(O)c1C2=O` [Rhein-DCA], the “stability (UV-Vis absorption spectra)” value was “relatively stable”.
